The results in this text go back to the supplement of paper PMC7840683.

Structures are written as SMILES. ± gives the standard deviation of the averaged measurements.

The subject of this test is HepaRG. The experiment in a line: LDH release cytotoxicity, % of total lysis control; higher = more cytotoxic. As to conditions: 48 h. The essentials:
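Single-lot HepaRG cells in collagen I-coated 96-well plates were treated for 48 h in serum-free induction medium containing 0.5% DMSO with test chemicals in eight-point half-log series up to 100 µM. For total lysis, wells received 0.1% Triton X. LDH in 50 µL spent medium was assayed by resorufin fluorescence with CytoTox-ONE. Percent cytotoxicity was normalized to the on-plate vehicle and total lysis controls, with duplicates averaged.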
A general note: LDH in the medium is a marker of cell lysis.

For the molecule `O=C(O)COc1ccc(Cl)cc1Cl` [2,4-Dichlorophenoxyacetic acid], the LDH release cytotoxicity (0.03162 µM) was -2.81 ± 0.75%; the LDH release cytotoxicity (0.1 µM) is -3.06 ± 0.11%; the LDH release cytotoxicity (0.3162278 µM) is -3.35 ± 0.81%; the LDH release cytotoxicity (1 µM) is -3.21 ± 0.55%; the LDH release cytotoxicity (3.16228 µM) was -3.24 ± 0.42%; the LDH release cytotoxicity (10 µM) is -3.79 ± 0.69%. Besides, the LDH release cytotoxicity runs as follows: (31.6228 µM) 48.3 ± 0.8%; (100 µM) 69.9 ± 2%.
With `COc1cc(OC)nc(Sc2cccc(Cl)c2C(=O)O)n1` [Pyrithiobac-sodium], the LDH release cytotoxicity (0.03162 µM) was -1.21 ± 0.15%; the LDH release cytotoxicity (0.1 µM) was -0.445 ± 0.51%; the LDH release cytotoxicity (0.3162278 µM) is -0.467 ± 0.22%; the LDH release cytotoxicity (1 µM) was -0.953 ± 0.39%; the LDH release cytotoxicity (3.16228 µM) was -0.133 ± 0.53%; the LDH release cytotoxicity (10 µM) amounted to 0.758 ± 0.15%. In addition, the LDH release cytotoxicity came out at 0.654 ± 0.062% (31.6228 µM) and 2.53 ± 0.2% (100 µM).
Take `CN(C)c1ccc(Cc2ccc(N(C)C)cc2)cc1` [4,4'-Methylenebis(N,N-dimethylaniline)]: the LDH release cytotoxicity by setting is: (0.03162 µM) -0.47 ± 1.9%; (0.1 µM) -1.28 ± 0.91%; (0.3162278 µM) -1.73 ± 1%; (1 µM) -1.6 ± 0.25%; (3.16228 µM) -1.29 ± 0.56%; (10 µM) -1.04 ± 0.28%. The LDH release cytotoxicity is -0.536 ± 0.19% (31.6228 µM) and 0.0839 ± 0.57% (100 µM).
Consider `CCc1cccc(C)c1N(C(=O)CCl)C(C)COC` (configuration not stated) [Metolachlor], for which the LDH release cytotoxicity is -2.35 ± 0.41% (0.03162 µM); -1.88 ± 0.93% (0.1 µM); -2.04 ± 0.75% (0.3162278 µM); -1.88 ± 0.4% (1 µM); -1.33 ± 0.23% (3.16228 µM); -1.85 ± 1.5% (10 µM). The LDH release cytotoxicity is, setting by setting: (31.6228 µM) -1.51 ± 0.46%; (100 µM) -1.21 ± 0.023%.
Take `CCCCC(CC)COC(=O)c1ccc(C(=O)OCC(CC)CCCC)cc1` (configuration not stated) [Bis(2-ethylhexyl) terephthalate]: the LDH release cytotoxicity reads like this: (0.03162 µM) -2 ± 1.1%; (0.1 µM) -1.13 ± 0.62%; (0.3162278 µM) -1.76 ± 0.63%; (1 µM) -2.5 ± 0.76%; (3.16228 µM) -2.35 ± 0.77%; (10 µM) -2.12 ± 0.71%. In addition, the LDH release cytotoxicity (31.6228 µM) was -2.26 ± 0.82% and the LDH release cytotoxicity (100 µM) is -1.14 ± 0.6%.
As for `CC(C)c1cccc(C(C)C)c1` [1,3-Diisopropylbenzene], the LDH release cytotoxicity reads like this: (0.031623 µM) -1.99 ± 0.73%; (0.1 µM) -2.55 ± 1.5%; (0.316228 µM) -2.42 ± 1.3%; (1 µM) -4.25 ± 0.7%; (3.16228 µM) -3.82 ± 0.32%; (10 µM) -2.51 ± 1.5%. The LDH release cytotoxicity by setting is: (31.6228 µM) -1.16 ± 0.34%; (100 µM) 0.451 ± 1.2%.
Consider `COC(=O)c1c(Cl)c(Cl)c(C(=O)OC)c(Cl)c1Cl` [Chlorthal-dimethyl], for which the LDH release cytotoxicity by setting is: (0.03162 µM) -0.87 ± 0.31%; (0.1 µM) -0.884 ± 1.1%; (0.3162278 µM) -1.01 ± 0.16%; (1 µM) -0.618 ± 0.39%; (3.16228 µM) -0.53 ± 0.67%; (10 µM) 0.0929 ± 0.87%. Also, the LDH release cytotoxicity (31.6228 µM) is -0.208 ± 0.25% and the LDH release cytotoxicity (100 µM) came out at 1.01 ± 0.28%.
Turning to `N#Cc1ccc(N(CC(N)=O)CC(F)(F)F)cc1C(F)(F)F`, the LDH release cytotoxicity is, setting by setting: (0.03162 µM) -0.784 ± 0.86%; (0.1 µM) -0.777 ± 1.4%; (0.3162278 µM) -1.03 ± 1.4%; (1 µM) -1.38 ± 0.065%; (3.16228 µM) -0.891 ± 1.1%; (10 µM) 0.346 ± 0.016%. For the same molecule, the LDH release cytotoxicity (31.6228 µM) is -0.599 ± 0.47% and the LDH release cytotoxicity (100 µM) was -0.34 ± 0.95%.
Regarding `Oc1ccc2c(c1)-c1ccccc1C2` [3-Hydroxyfluorene], the LDH release cytotoxicity was -1.48 ± 0.74% (0.03162 µM); -1.06 ± 0.48% (0.1 µM); -0.414 ± 0.17% (0.3162278 µM); -1.04 ± 0.052% (1 µM); -0.932 ± 0.52% (3.16228 µM); -0.0118 ± 0.39% (10 µM). For the same molecule, the LDH release cytotoxicity was 0.438 ± 0.78% (31.6228 µM) and 3.69 ± 1.1% (100 µM).
Take `COP(N)(=O)SC` (configuration not stated) [Methamidophos]: the LDH release cytotoxicity reads like this: (0.03162 µM) 5.78 ± 0.77%; (0.1 µM) 2.73 ± 1.8%; (0.3162278 µM) 2.4 ± 2.4%; (1 µM) 3.67 ± 3.3%; (3.16228 µM) 3.79 ± 2.6%; (10 µM) 3.76 ± 1.4%. The LDH release cytotoxicity (31.6228 µM) is 5.99 ± 0.16% and the LDH release cytotoxicity (100 µM) worked out at 6.57 ± 0.57%.
Regarding `O=C(O)c1ccc([N+](=O)[O-])cc1` [4-Nitrobenzoic acid], the LDH release cytotoxicity (0.03162 µM) is -2.11 ± 0.46%; the LDH release cytotoxicity (0.1 µM) was -1.22 ± 0.03%; the LDH release cytotoxicity (0.3162278 µM) is -0.728 ± 0.58%; the LDH release cytotoxicity (1 µM) is -0.721 ± 1.3%; the LDH release cytotoxicity (3.16228 µM) was -1.62 ± 0.43%; the LDH release cytotoxicity (10 µM) is -0.906 ± 0.7%. Further, the LDH release cytotoxicity was -0.392 ± 0.1% (31.6228 µM) and 1.32 ± 1.1% (100 µM).
For `CCCCCCCCCC` [Decane], the LDH release cytotoxicity (0.031623 µM) was -0.647 ± 0.6%; the LDH release cytotoxicity (0.1 µM) is -2.33 ± 0.84%; the LDH release cytotoxicity (0.316228 µM) was -2.41 ± 0.87%; the LDH release cytotoxicity (1 µM) was -2.73 ± 0.13%; the LDH release cytotoxicity (3.16228 µM) is -3.64 ± 0.16%; the LDH release cytotoxicity (10 µM) was -2.67 ± 0.26%. The LDH release cytotoxicity runs as follows: (31.6228 µM) -1.91 ± 0.28%; (100 µM) 0.361 ± 0.12%.
Take `O=C(O)CC(O)(CC(=O)O)C(=O)O` [Citric acid]: the LDH release cytotoxicity by setting is: (0.03162 µM) 0.134 ± 0.67%; (0.1 µM) -0.835 ± 0.31%; (0.3162278 µM) -0.0952 ± 0.86%; (1 µM) -1.29 ± 0.12%; (3.16228 µM) -0.803 ± 0.025%; (10 µM) 0.951 ± 0.43%. Moreover, the LDH release cytotoxicity is 0.893 ± 0.17% (31.6228 µM) and 0.958 ± 0.17% (100 µM).
Turning to `CCCCCCCCCCCCCCO` [1-Tetradecanol], the LDH release cytotoxicity is, setting by setting: (0.03162 µM) -1.1 ± 0.46%; (0.1 µM) -2.17 ± 0.9%; (0.3162278 µM) -0.313 ± 1%; (1 µM) -2.29 ± 0.65%; (3.16228 µM) -2.1 ± 0.054%; (10 µM) -1.49 ± 0.62%. In addition, the LDH release cytotoxicity (31.6228 µM) is -1.69 ± 0.017% and the LDH release cytotoxicity (100 µM) turned out to be 6.5 ± 2.2%.
